According to BindingDB's records for doi:10.1021/jm00007a008 (Glaxo Inc. Research Institute, 1995):
pIC50: −log10 of the molar value.

Experiments:
[1] = In vitro fragmentation of DNA in the presence of excess calf thymus topoisomerase.
[2] = Minimum concentration that produced 50% fragmentation of DNA was measured in the presence of excess calf thymus topoisomerase.

| SMILES | pIC50 [1] | pIC50 [2] |
| --- | --- | --- |
| CCc1c2c(nc3cnc(CN)cc13)-c1cc3c(c(=O)n1C2)COC(=O)[C@]3(O)CC [(S)-9-Aminomethyl-4,11-diethyl-4-hydroxy-1,12-dihydro-4H-2-oxa-6,8,12a-triaza-dibenzo[b,h]fluorene-3,13-dione] | 6.78 | – |
| CC[C@@]1(O)C(=O)OCc2c1cc1n(c2=O)Cc2cc3ccncc3nc2-1 [(S)-4-Ethyl-4-hydroxy-1,12-dihydro-4H-2-oxa-6,8,12a-triaza-dibenzo[b,h]fluorene-3,13-dione] | 6.42 | – |
| CCc1c2c(nc3cnc(C#N)cc13)-c1cc3c(c(=O)n1C2)COC(=O)[C@]3(O)CC [(S)-4,11-Diethyl-4-hydroxy-3,13-dioxo-3,4,12,13-tetrahydro-1H-2-oxa-6,8,12a-triaza-dibenzo[b,h]fluorene-9-carbonitrile] | 6.57 | – |
| CCc1c2c(nc3cnc(C(=N)N)cc13)-c1cc3c(c(=O)n1C2)COC(=O)[C@]3(O)CC [(S)-4,11-Diethyl-4-hydroxy-3,13-dioxo-3,4,12,13-tetrahydro-1H-2-oxa-6,8,12a-triaza-dibenzo[b,h]fluorene-9-carboxamidine] | – | 7.48 |
| CC[C@@]1(O)C(=O)OCc2c1cc1n(c2=O)Cc2c-1nc1c[n+]([O-])c(CN)cc1c2C [(S)-9-Aminomethyl-4-ethyl-4-hydroxy-11-methyl-8-oxy-1,12-dihydro-4H-2-oxa-6,8,12a-triaza-dibenzo[b,h]fluorene-3,13-dione] | – | 6.72 |
| CC[C@@]1(O)C(=O)OCc2c1cc1n(c2=O)Cc2c-1nc1cnc(C#CCN3CCOCC3)cc1c2C [(S)-4-Ethyl-4-hydroxy-11-methyl-9-(3-morpholin-4-yl-prop-1-ynyl)-1,12-dihydro-4H-2-oxa-6,8,12a-triaza-dibenzo[b,h]fluorene-3,13-dione] | 5.95 | – |
| CC[C@@]1(O)C(=O)OCc2c1cc1n(c2=O)Cc2cc3cc[n+]([O-])cc3nc2-1 [(S)-4-Ethyl-4-hydroxy-8-oxy-1,12-dihydro-4H-2-oxa-6,8,12a-triaza-dibenzo[b,h]fluorene-3,13-dione] | 5.93 | – |
| CCc1c2c(nc3cnc(C#CCN)cc13)-c1cc3c(c(=O)n1C2)COC(=O)[C@]3(O)CC [(S)-9-(3-Amino-prop-1-ynyl)-4,11-diethyl-4-hydroxy-1,12-dihydro-4H-2-oxa-6,8,12a-triaza-dibenzo[b,h]fluorene-3,13-dione] | – | 5.97 |
| CCc1c2c(nc3cnc(C(=N)NO)cc13)-c1cc3c(c(=O)n1C2)COC(=O)[C@]3(O)CC [(S)-4,11-Diethyl-4,N-dihydroxy-3,13-dioxo-3,4,12,13-tetrahydro-1H-2-oxa-6,8,12a-triaza-dibenzo[b,h]fluorene-9-carboxamidine] | – | 7.15 |
| CCc1c2c(nc3cnc(CCCN(C)C)cc13)-c1cc3c(c(=O)n1C2)COC(=O)[C@]3(O)CC [(S)-9-(3-Dimethylamino-propyl)-4,11-diethyl-4-hydroxy-1,12-dihydro-4H-2-oxa-6,8,12a-triaza-dibenzo[b,h]fluorene-3,13-dione] | 5.83 | – |
| CCc1c2c(nc3cnc(C#CCN(C)C)cc13)-c1cc3c(c(=O)n1C2)COC(=O)[C@]3(O)CC [(S)-9-(3-Dimethylamino-prop-1-ynyl)-4,11-diethyl-4-hydroxy-1,12-dihydro-4H-2-oxa-6,8,12a-triaza-dibenzo[b,h]fluorene-3,13-dione] | 5.88 | – |
| CCc1c2c(nc3cnc(Br)cc13)-c1cc3c(c(=O)n1C2)COC(=O)[C@]3(O)CC [(S)-9-Bromo-4,11-diethyl-4-hydroxy-1,12-dihydro-4H-2-oxa-6,8,12a-triaza-dibenzo[b,h]fluorene-3,13-dione] | 6.91 | – |
| CCOC(=O)c1cc2c(CC)c3c(nc2cn1)-c1cc2c(c(=O)n1C3)COC(=O)[C@]2(O)CC [(S)-4,11-Diethyl-4-hydroxy-3,13-dioxo-3,4,12,13-tetrahydro-1H-2-oxa-6,8,12a-triaza-dibenzo[b,h]fluorene-9-carboxylic acid ethyl ester] | 6.02 | – |
| CCc1c2c(nc3c[n+](C)ccc13)-c1cc3c(c(=O)n1C2)COC(=O)[C@]3(O)CC [(S)-4,11-Diethyl-4-hydroxy-8-methyl-3,13-dioxo-3,4,12,13-tetrahydro-1H-2-oxa-6,12a-diaza-8-azonia-dibenzo[b,h]fluorene; iodide] | – | 5.84 |
| CC[C@@]1(O)C(=O)OCc2c1cc1n(c2=O)Cc2c-1nc1cnc(C#CCN)cc1c2C [(S)-9-(3-Amino-prop-1-ynyl)-4-ethyl-4-hydroxy-11-methyl-1,12-dihydro-4H-2-oxa-6,8,12a-triaza-dibenzo[b,h]fluorene-3,13-dione] | 6.30 | – |
| CC[C@@]1(O)C(=O)OCc2c1cc1n(c2=O)Cc2c-1nc1cnc(CN)cc1c2C [(S)-9-Aminomethyl-4-ethyl-4-hydroxy-11-methyl-1,12-dihydro-4H-2-oxa-6,8,12a-triaza-dibenzo[b,h]fluorene-3,13-dione] | – | 6.63 |
| CCc1c2c(nc3cnccc13)-c1cc3c(c(=O)n1C2)COC(=O)[C@]3(O)CC [(S)-4,11-Diethyl-4-hydroxy-1,12-dihydro-4H-2-oxa-6,8,12a-triaza-dibenzo[b,h]fluorene-3,13-dione] | 6.47 | – |
| CC[C@@]1(O)C(=O)OCc2c1cc1n(c2=O)Cc2c-1nc1c[n+]([O-])c(CNC(=O)OC(C)(C)C)cc1c2C [((S)-4-Ethyl-4-hydroxy-11-methyl-3,13-dioxo-8-oxy-3,4,12,13-tetrahydro-1H-2-oxa-6,8,12a-triaza-dibenzo[b,h]fluoren-9-ylmethyl)-carbamic acid tert-butyl ester] | 6.66 | – |
| CCc1c2c(nc3cnc(C(=O)NCCN(C)C)cc13)-c1cc3c(c(=O)n1C2)COC(=O)[C@]3(O)CC [(S)-4,11-Diethyl-4-hydroxy-3,13-dioxo-3,4,12,13-tetrahydro-1H-2-oxa-6,8,12a-triaza-dibenzo[b,h]fluorene-9-carboxylic acid (2-dimethylamino-ethyl)-amide] | 5.03 | – |
